This note sets out measurements from PMC9100920, “Crosstalk between β2- and α2-Adrenergic Receptors in the Regulation of B16F10 Melanoma Cell Proliferation” (International Journal of Molecular Sciences, 2022).

The test concerns the target T1, β2-AR (Mus musculus, UniProt P18762).
T1 construct: gene Adrb2
Nature of the test: GloSensor cAMP concentration-response in B16F10 cells (endogenous receptor), agonist. It counts as cell-based.

Like-named read-outs stand apart in the source and are kept apart here.

T1 sequence (P18762 whole entry): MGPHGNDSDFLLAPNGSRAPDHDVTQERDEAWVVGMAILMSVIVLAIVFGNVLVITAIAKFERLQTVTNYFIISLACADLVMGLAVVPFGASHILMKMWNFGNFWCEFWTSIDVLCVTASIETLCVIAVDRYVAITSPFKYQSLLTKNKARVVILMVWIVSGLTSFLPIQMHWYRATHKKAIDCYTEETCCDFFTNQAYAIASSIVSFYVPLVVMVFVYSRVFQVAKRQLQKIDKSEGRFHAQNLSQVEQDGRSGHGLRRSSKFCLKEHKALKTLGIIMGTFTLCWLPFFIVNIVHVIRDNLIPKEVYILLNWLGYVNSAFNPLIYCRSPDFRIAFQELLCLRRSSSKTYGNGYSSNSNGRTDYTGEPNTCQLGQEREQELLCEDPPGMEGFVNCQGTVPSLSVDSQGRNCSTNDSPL

On to `NC[C@H](O)c1ccc(O)c(O)c1` [NE, norepinephrine], for which the EC50 (read-out: EC50) came out at 284 nM.

As for `CNC[C@H](O)c1ccc(O)c(O)c1` [EPI, epinephrine], the EC50 is 45 nM.
